These results are taken from patent US20220152015A1, “NEDOCROMIL SODIUM TO PREVENT, LIMIT ONSET, AND /OR TREAT PANCREATIC CANCER” (priority 2020, published 2022).

One may read the EC50 as the midpoint of the concentration-response curve.

In data set [1] the target is T1, human GPR35 (Homo sapiens, UniProt Q9HC97).
T1 construct: expressed in transfected cells; host or cells: CHO-K1
Put plainly: PathHunter human GPR35a-β-arrestin-2 interaction assay in CHO-K1 cells. It is filed as cell-based.

Data set [2] deals with ion channels present in the intestinal cell line HT29. In words: Whole-cell patch-clamp recordings of ion channels. It is filed as cell-based. Particulars: HT29 cells. An excerpt: Summary—Whole-cell patch-clamp recordings were used to test the effects of The Compound on ion channels.
(The patch-clamp technique gives a direct electrical read-out from membranes.)

Data set [3] has as its system cancerous tumor. In words: Dog tumor case, topical application. It is filed as in vivo. Here is the method: Summary—A female dog was given the diagnosis of a cancerous tumor (without confirmatory histology due to lack of ability to aspirate the tumor due to the hardness of the mass) in June of 2020. At the time of diagnosis the tumor located on […] right shoulder was measured at 2 inches by 2 inches with a depth of 0.5 inches. Other than supportive care (ketogenic diet to delay tumor progression, and gabapentin for neuropathic pain) no treatment was provided by the owners, as the cost and lack of clear benefit to conventional therapy (biopsy, chemotherapy, and eventual resection) was not deemed to be appropriate for this dog. […] On December 23rd, 2020 the first application of Nedocromil sodium compound was administered to the dog via the topical route. The dog's tumor area was shaved to improve the absorption of the compound into the skin. On Jul. 16, 2021 (tumor size of 1.5×1×0.5 inches), a second application of Nedocromil Sodium was applied using the same dosing strategy in attempt to eradicate the tumor entirely.

In data set [4] the test system is K-ras^G12Dp53^−/− tumors. In words: Surgically implanted PDAC tumors in tumor-bearing C57BL/6 mice. Format: in vivo. As to the method: To determine whether targeting mast cell function has a therapeutic effect in PDAC, we injected tumor-bearing C57BL/6 mice Nedocromil sodium, a mast cell stabilizer. […] Tumor measurement was performed at the end time point (day 50) after treatment. […] Similarly, mast cell degranulation in the tumor microenvironment was inhibited in the nedocromil sodium-treated group compared with in the saline-treated control group.

Data set [5] deals with stage 4 transit metastatic melanoma. Put plainly: Transit metastasis melanoma case study, topical application. As to the method:
Person with stage 4 transit metastatic melanoma with 30 melanomas on the body. Using chemotherapy infusions every 3 weeks since 2019. For 2 weeks used topical Nedocromil sodium with one dose per tumor (30) per week. […] In modern medicine the goal is to shrink a tumor, but the tumor never resolves. […] The patient was treated with Nedocromil Sodium on all 30 tumors in one sitting.

For data set [6], the system named is Panc-02 tumor cells. In words: Panc-02 tumor growth in mice. Format: in vivo. To be noted: treated mice vs. saline control at day 21 after treatment, P<0.001. An excerpt:
To determine whether targeting mast cell function has a therapeutic effect in PDAC, we injected tumor-bearing C57BL/6 mice Nedocromil sodium, a mast cell stabilizer. […] […] […] Similarly, mast cell degranulation in the tumor microenvironment was inhibited in the nedocromil sodium-treated group compared with in the saline-treated control group.

T1 sequence (Q9HC97 whole entry): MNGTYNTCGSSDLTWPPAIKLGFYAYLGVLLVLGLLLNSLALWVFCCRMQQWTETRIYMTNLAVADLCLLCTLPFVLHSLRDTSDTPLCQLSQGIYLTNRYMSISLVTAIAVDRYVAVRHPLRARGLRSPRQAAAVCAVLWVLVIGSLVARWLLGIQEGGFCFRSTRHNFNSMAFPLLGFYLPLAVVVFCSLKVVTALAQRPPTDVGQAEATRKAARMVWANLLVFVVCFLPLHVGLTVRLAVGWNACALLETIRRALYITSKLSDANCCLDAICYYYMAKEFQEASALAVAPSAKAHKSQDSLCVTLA

For the molecule `CCCc1c2oc(C(=O)[O-])cc(=O)c2cc2c(=O)cc(C(=O)[O-])n(CC)c12.[Na+].[Na+]` [Nedocromil Sodium, 4H-Pyrano[3,2-g]quinoline-2,8-dicarboxylic acid, 9-ethyl-6,9-dihydro-4,6-dioxo-10-propyl-, disodium salt], the EC50 in data set [1] (CHO-K1 cell line stably expressing human GPR35 and β-arrestin) was 2.98 ± 1.27 µM. Further, the “agonism of GPR 35” value in data set [1] (PathHunter β-arrestin-2 interaction assay) is “potent full agonist”. For the same molecule, the “dose dependence of ion channel block” value in data set [2] is “dose-dependent manner”. Also, the tumor change entry in data set [3] (8 week mark after second topical application) is on record as “no tumor was able to be felt”; in data set [3] (roughly 6 weeks after second topical application), “noticeably smaller”; in data set [5] (after one topical treatment, 30 tumors) it was “the tumors have flattened”. Moreover, the “mast cell degranulation in the tumor microenvironment” value in data set [4] (compared with saline-treated control group) was “inhibited”. The mean tumor size in data set [4] (end time point (day 50) after treatment, saline group 31.3) is given as 5.2 mm^3. Besides, the tumor growth result in data set [4] (treated mice vs. saline control at day 42 after treatment, P<0.001) is “significantly suppressed”; in data set [6], “significantly suppressed”. In data set [5] (after 2nd topical treatment), the “number of tumors dissolved” value is 17 OF THE 30 TUMORS. For the same molecule, in data set [5] (all 30 tumors treated in one sitting), the side effects result is on record as “no side effects”.
